Laboratory results reported in patent publication US7902252B2, “Inhibitors of D-amino acid oxidase” (Sepracor, Inc., priority 2007, dated 2011).

How the values were obtained:
Human DAAO = Human DAAO (Homo sapiens, UniProt P14920); test: D-Amino Acid Oxidase enzyme assay (D-serine, horseradish peroxidase/Amplex Red coupled fluorescence); format: biochemical; conditions: D-serine 5 mM, pH 7.4
Procedure, shortened: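 D-serine substrate at 5 mM (Km), 50 mM sodium phosphate pH 7.4; H2O2 output coupled via 4 U/mL horseradish peroxidase and 50 μM Amplex Red to resorufin fluorescence. Reaction started with enzyme; H2O2 control checked coupling interference; IC50 from inhibition curves.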

[1] = test system: D-serine levels in the cerebellum; test: In vivo elevation of D-serine levels in the cerebellum; set-up: species or system Mice (C57BL/6); conditions: mice, intraperitoneal;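 further: Cutoffs are cerebellum D-serine in nmol/g wet tissue weight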
Experimental: […] Animals are sacrificed at either 2 or 6 h post compound administration with an N=3 per time point. At sacrifice, trunk blood is collected into tubes containing potassium EDTA, which are then centrifuged to permit isolation of plasma. The cerebellum is dissected from each animal. Plasma and cerebellum samples are stored at −80° C. until samples are analyzed (LC/MS/MS).

Chain of Human DAAO (P14920 whole entry): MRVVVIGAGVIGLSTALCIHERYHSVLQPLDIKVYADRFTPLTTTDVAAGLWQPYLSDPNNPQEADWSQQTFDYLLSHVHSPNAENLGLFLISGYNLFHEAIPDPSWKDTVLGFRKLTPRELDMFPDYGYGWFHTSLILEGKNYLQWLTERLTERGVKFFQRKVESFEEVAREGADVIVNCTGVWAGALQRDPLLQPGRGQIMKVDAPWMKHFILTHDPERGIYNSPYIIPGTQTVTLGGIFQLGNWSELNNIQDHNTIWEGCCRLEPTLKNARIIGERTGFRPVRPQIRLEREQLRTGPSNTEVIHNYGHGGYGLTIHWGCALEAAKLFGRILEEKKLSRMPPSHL

SMILES	IC50 (Human DAAO) [µM]	Cerebellum D-serine at 2 hours ([1]; dose 60 mg/kg)	Cerebellum D-serine at 6 hours ([1]; dose 60 mg/kg)	Cerebellum D-serine at 2 hours ([1]; dose 30 mg/kg)	Cerebellum D-serine at 6 hours ([1]; dose 30 mg/kg)
O=C(O)c1cc2c([nH]1)CCC2c1ccc(F)c(F)c1 (centres unmarked) [Compound 97, 4-(3,4-difluorophenyl)-1,4,5,6-tetrahydrocyclopenta[b]pyrrole-2-carboxylic acid]	≤ 0.1	(+) (2.5-4.9 = (+))	(+) (2.5-4.9 = (+))	–	–
N#Cc1cccc(C2CCc3[nH]c(C(=O)O)cc32)c1 (centres unmarked) [Compound 105, 4-(3-cyanophenyl)-1,4,5,6-tetrahydrocyclopenta[b]pyrrole-2-carboxylic acid]	≤ 0.1	(−) (<2.5 = (−))	–	–	–
O=C(O)c1cc2c([nH]1)C(Cc1cc(F)cc(Cl)c1)CC2 (centres unmarked) [Compound 124, 6-(3-chloro-5-fluorobenzyl)-1,4,5,6-tetrahydrocyclopenta[b]pyrrole-2-carboxylic acid]	≤ 0.1	(−) (<2.5 = (−))	(−) (<2.5 = (−))	–	–
CCOC(=O)c1[nH]c2c(c1O)CCC2 [Compound 137, ethyl 3-hydroxy-1,4,5,6-tetrahydrocyclopenta[b]pyrrole-2-carboxylate]	> 100	–	–	(+) (2.5-4.9 = (+))	(+) (2.5-4.9 = (+))
O=C(O)c1cc2c([nH]1)[C@@H]1C[C@@H]1C2 [Compound 146, (1aR,5aR)-1a,2,5,5a-tetrahydro-1H-2-aza-cyclopropa[α]pentalene-3-carboxylic acid]	≤ 0.1	(++) (>5 = (++))	(++) (>5 = (++))	–	–
